≈ marks a conversion by molar mass, not a printed value. Where “and” joins values, the source holds several entries; their conditions need not be identical. Identical values can stand only once. Non-standard residues stand in square brackets, D forms with d. Residues, ends and D or L forms follow the SMILES beside them.
Key:
S. aureus ATCC 25923 = experiment: Time-kill assay (growth curve, OD600); type: cell-based, Staphylococcus aureus; details: 16 × MIC
Method: Tube was inoculated (5 × 10^6 CFU/mL) with S. aureus ATCC 25923 and incubated at 37°C under shaking. Bacterial concentration was measured at each time point (0, 1, 2, 2.5, 3, 3.5, 4, 5, 6 and 7 h) by measuring absorbance at 600 nm with a microplate reader.

A. baumannii 1337 = type: cell-based, Acinetobacter baumannii
Excerpt: (§1) Bacteria were cultivated in Luria-Bertani (LB) broth.

A. baumannii 1318 = type: cell-based, Acinetobacter baumannii
Excerpt: as §1

| SMILES | time to complete inhibition of bacterial growth (S. aureus ATCC 25923) | OD600, growth curve (SI Fig 2) (S. aureus ATCC 25923; 0 h) | OD600, growth curve (SI Fig 2) (S. aureus ATCC 25923; 1 h) | OD600, growth curve (SI Fig 2) (S. aureus ATCC 25923; 2 h) | OD600, growth curve (SI Fig 2) (S. aureus ATCC 25923; 2.5 h) | OD600, growth curve (SI Fig 2) (S. aureus ATCC 25923; 3 h) | OD600, growth curve (SI Fig 2) (S. aureus ATCC 25923; 3.5 h) | OD600, growth curve (SI Fig 2) (S. aureus ATCC 25923; 4 h) | OD600, growth curve (SI Fig 2) (S. aureus ATCC 25923; 5 h) | OD600, growth curve (SI Fig 2) (S. aureus ATCC 25923; 6 h) | OD600, growth curve (SI Fig 2) (S. aureus ATCC 25923; 7 h) | MIC Gram- A. b 1337 (A. baumannii 1337) | MIC Gram- A. b 1318 (A. baumannii 1318) |
| --- | --- | --- | --- | --- | --- | --- | --- | --- | --- | --- | --- | --- | --- |
| CC[C@H](C)[C@H](NC(=O)[C@H](CCCNC(=N)N)NC(=O)[C@H](CCCNC(=N)N)NC(=O)[C@H](CC(C)C)NC(=O)[C@H](Cc1ccccc1)NC(=O)[C@@H](N)CCCNC(=N)N)C(=O)N[C@@H](Cc1ccccc1)C(=O)N[C@@H](Cc1ccccc1)C(=O)N[C@@H](Cc1ccccc1)C(=O)N[C@@H](Cc1ccccc1)C(N)=O [HT2] (H-RFLRRIFFFF-NH2) | 1 h | 0.056 and 0.082 and 0.062 | 0.082 and 0.091 and 0.066 | 0.069 and 0.072 and 0.06 | 0.061 and 0.073 and 0.063 | 0.083 and 0.086 and 0.085 | 0.066 and 0.069 and 0.083 | 0.073 and 0.083 and 0.077 | 0.07 and 0.073 and 0.058 | 0.08 and 0.081 and 0.078 | 0.077 and 0.084 and 0.075 |  |  |
| CC[C@@H](C)[C@@H](NC(=O)[C@@H](Cc1ccccc1)NC(=O)[C@@H](Cc1ccccc1)NC(=O)[C@@H](Cc1ccccc1)NC(=O)[C@H](N)Cc1ccccc1)C(=O)N[C@H](CCCNC(=N)N)C(=O)N[C@H](CCCNC(=N)N)C(=O)N[C@H](CC(C)C)C(=O)N[C@H](Cc1ccccc1)C(=O)N[C@H](CCCNC(=N)N)C(N)=O [RI-HT2] (H-[dF][dF][dF][dF][dI][dR][dR][dL][dF][dR]-NH2; N-terminus assumed) |  |  |  |  |  |  |  |  |  |  |  | 3.13 µM (≈ 4.53 µg/mL) | 3.13 µM (≈ 4.53 µg/mL) |

From publication PMC10657444, “Design and evaluation of tadpole-like conformational antimicrobial peptides” (Communications Biology, 2023)
